Assay results taken from patent US11059786B2, “Aminopyridine compounds and methods for the preparation and use thereof” (Cortexyme, Inc., priority 2017, dated 2021).

The molecules below were run against T1, RgpB (Porphyromonas gingivalis, UniProt P95493) (assay: RgpB inhibition, fluorogenic assay). Conditions: Activity (RgpB IC50), 0.02 nM RgpB, 10 μM Boc-Phe-Ser-Arg-MCA, 90 minutes, 37° C., pH=7.5.
T1 construct: 0.02 nM RgpB, isolated from culture of Porphyromonas gingivalis; endogenous in cells
T1 sequence (P95493 230-664): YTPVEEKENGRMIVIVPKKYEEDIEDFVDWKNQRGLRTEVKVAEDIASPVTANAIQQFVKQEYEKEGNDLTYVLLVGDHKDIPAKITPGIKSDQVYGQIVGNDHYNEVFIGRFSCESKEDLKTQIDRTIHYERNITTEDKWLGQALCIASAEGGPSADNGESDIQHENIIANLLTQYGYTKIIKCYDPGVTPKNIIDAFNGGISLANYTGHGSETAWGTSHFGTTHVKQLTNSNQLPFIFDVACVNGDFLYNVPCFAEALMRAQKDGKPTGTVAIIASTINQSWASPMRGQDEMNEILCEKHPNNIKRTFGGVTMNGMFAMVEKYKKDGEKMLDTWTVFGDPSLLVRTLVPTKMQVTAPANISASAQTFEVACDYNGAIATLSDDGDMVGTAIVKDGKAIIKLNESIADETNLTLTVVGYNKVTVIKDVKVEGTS
Type: biochemical
Method: The capacities of compounds of the present invention to inhibit the activity of RgpB were measured in a fluorogenic assay similar to those described in Barret Biochemical Journal. 1980, 187(3), 909. The specific assay conditions were as follows. Buffer: pH=7.5, 100 mM Tris-HCl, 75 mM NaCl, 2.5 mM CaCl2, 10 mM cysteine, 1% DMSO after all additions. Protein: 0.02 nM RgpB, isolated from culture of Porphyromonas gingivalis, as described in Pike et al. J. Biol. Chem. 1994, 269(1), 406, and Potempa and Nguyen. Current Protocols in Protein Scienc. 2007, 21.20.1-21.20.27. Fluorogenic substrate: 10 μM Boc-Phe-Ser-Arg-MCA. Time=90 minutes. Temperature=37° C. Each compound: 10 concentrations, starting at either 100 μM or 100 nM, with lower concentrations generated by serial 3-fold dilutions. By testing a range of concentrations for each compound, the concentration required to inhibit the activity of RgpB by 50% (the “IC50”) was determined.
Work on `N#CN(CCOc1ccnc(N)c1)C1CCCCC1` [Compound 40, N-(2-((2-aminopyridin-4-yl)oxy)ethyl)-N-cyclohexylcyanamide] yielded an IC50 of 10 to 100 µM.
With `N#CN1CCC(CCOc2ccnc(N)c2)C1` (stereo not drawn) [Compound 17, 3-(2-((2-aminopyridin-4-yl)oxy)ethyl)pyrrolidine-1-carbonitrile] the IC50 was 1 to 10 µM.
`N#CN1CCCC1COc1ccnc(N)c1` (stereo not drawn) [Compound 3, 2-(((2-aminopyridin-4-yl)oxy)methyl)pyrrolidine-1-carbonitrile] was tested, and the IC50 was 0.1 to 1 µM.
`N#CN1CCC[C@H]1/C=C/c1ccnc(N)c1` [Compound 32, (S,E)-2-(2-(2-aminopyridin-4-yl)vinyl)pyrrolidine-1-carbonitrile] gave an IC50 of 0.1 to 1 µM.
`N#CN1CCC[C@@H]1c1ccc2c(N)nccc2c1` [Compound 43, (R)-2-(1-aminoisoquinolin-6-yl)pyrrolidine-1-carbonitrile] gave an IC50 of less than 0.1 µM.
Work on `Nc1cc(CC(NC(=O)C2CCCC2)C(=O)COc2ccon2)ccn1` (stereo not drawn) [Compound 70, N-(1-(2-aminopyridin-4-yl)-4-(isoxazol-3-yloxy)-3-oxobutan-2-yl)cyclopentanecarboxamide] yielded an IC50 of 0.1 to 1 µM.
`COC(C)(C)C(=O)NC(Cc1ccc(N)nc1)C(=O)COc1ccon1` (stereo not drawn) [Compound 59, N-(1-(6-aminopyridin-3-yl)-4-(isoxazol-3-yloxy)-3-oxobutan-2-yl)-2-methoxy-2-methylpropanamide] showed an IC50 of 0.1 to 1 µM.
With `N#CN1CCC[C@H]1COc1ccnc(N)c1` [Compound 19, (S)-2-(((2-aminopyridin-4-yl)oxy)methyl)pyrrolidine-1-carbonitrile] the IC50 was less than 0.1 µM.
`Nc1ccc(CC(NC(=O)C2CCCC2)C(=O)COc2ccon2)cn1` (stereo not drawn) [Compound 68, N-(1-(6-aminopyridin-3-yl)-4-(isoxazol-3-yloxy)-3-oxobutan-2-yl)cyclopentanecarboxamide] was tested, and the IC50 was less than 0.1 µM.
In the case of `Nc1ccc(CC(NC(=O)C2CCCC2)C(=O)COc2c(F)ccc(F)c2F)cn1` (stereo not drawn) [Compound 66, N-(1-(6-aminopyridin-3-yl)-3-oxo-4-(2,3,6-trifluorophenoxy)butan-2-yl)cyclopentanecarboxamide], the IC50 is reported as less than 0.1 µM.
`N#CN1CCC(COc2ccnc(N)c2)C1` (stereo not drawn) [Compound 47, 3-(((2-aminopyridin-4-yl)oxy)methyl)pyrrolidine-1-carbonitrile] gave an IC50 of 1 to 10 µM.
`CC(C)N(C#N)CCOc1ccnc(N)c1` [Compound 39, N-(2-((2-aminopyridin-4-yl)oxy)ethyl)-N-isopropylcyanamide] showed an IC50 of 10 to 100 µM.
`Nc1cc(CC(NC(=O)C2CCCC2)C(=O)COc2c(F)c(F)cc(F)c2F)ccn1` (stereo not drawn) [Compound 54, N-(1-(2-aminopyridin-4-yl)-3-oxo-4-(2,3,5,6-tetrafluorophenoxy)butan-2-yl)cyclopentanecarboxamide] was tested, and the IC50 was less than 0.1 µM.
`COC(C)(C)C(=O)NC(Cc1ccnc(N)c1)C(=O)COc1c(F)c(F)cc(F)c1F` (stereo not drawn) [Compound 65, N-(1-(2-aminopyridin-4-yl)-3-oxo-4-(2,3,5,6-tetrafluorophenoxy)butan-2-yl)-2-methoxy-2-methylpropanamide] showed an IC50 of less than 0.1 µM.
Work on `N#CN1CC(Oc2ccnc(N)c2)C1` [Compound 7, 3-((2-aminopyridin-4-yl)oxy)azetidine-1-carbonitrile] yielded an IC50 greater than 100 µM.

Same assay, conditions: Activity (RgpB IC50), compound not tested above 1 μM; 0.02 nM RgpB, 10 μM Boc-Phe-Ser-Arg-MCA, 90 minutes, 37° C.
`COC(C)(C)C(=O)NC(Cc1ccc(N)nc1)C(=O)COC(C(F)(F)F)C(F)(F)F` (stereo not drawn) [Compound 72, N-(1-(6-aminopyridin-3-yl)-4-((1,1,1,3,3,3-hexafluoropropan-2-yl)oxy)-3-oxobutan-2-yl)-2-methoxy-2-methylpropanamide] was tested, and the IC50 was greater than 1 µM.
`CN(C)c1nccc2cc([C@H]3CCCN3C#N)ccc12` [Compound 52b, (R)-2-(1-(dimethylamino)isoquinolin-6-yl)pyrrolidine-1-carbonitrile] was tested, and the IC50 was greater than 1 µM.
`COC(C)(C)C(=O)NC(Cc1ccnc(N)c1)C(=O)COC(C(F)(F)F)C(F)(F)F` (stereo not drawn) [Compound 73, N-(1-(2-aminopyridin-4-yl)-4-((1,1,1,3,3,3-hexafluoropropan-2-yl)oxy)-3-oxobutan-2-yl)-2-methoxy-2-methylpropanamide] gave an IC50 greater than 1 µM.
